Here are results for 5 molecules from paper PMC10146186, “Modulation of the Cytotoxic Properties of Pd(II) Complexes Based on Functionalized Carboxamides Featuring Labile Phosphoryl Coordination Sites” (Pharmaceutics, 2023).

Structures are written as SMILES. Like-named read-outs stand apart in the source and are kept apart here. Bounds are passed on as bounds.

Data set [1] concerns MCF7 breast cancer cells. In words: MTT cytotoxicity assay, MCF7. To be noted: for IC50: MCF7, MTT, 48 h exposure, read-out: IC50 ± SD, MCF7. The class given is cell-based, human. As to the method: (§1) To characterize the antitumor potential of the resulting Pd(II) pincer complexes, their cytotoxicities against a panel of human solid and hematopoietic cancer cell lines, including colorectal carcinoma (HCT116), breast cancer (MCF7), prostate adenocarcinoma (PC3), glioblastoma (U251), ovarian adenocarcinoma (Scov3), chronic myelogenous leukemia (K562) and its resistant subclone (K562/iS9), multiple plasmacytoma (AMO1), and acute lymphoblastic leukemia (H9) cell lineages, were evaluated using the conventional MTT assay. […] For comparison, the inhibitory effects of the compounds explored on noncancerous human embryonic kidney cells HEK293 as well as transformed breast cells HBL100 and their doxorubicin-resistant analogs HBL100/Dox were also investigated under the same conditions.
(§2) The cytotoxic activity of the compounds explored was investigated on human colorectal carcinoma (HCT116), breast cancer (MCF7), prostate adenocarcinoma (PC3), glioblastoma (U251), ovarian adenocarcinoma (Scov3), chronic myelogenous leukemia (K562 and K562/iS9), multiple plasmacytoma (AMO1), and acute lymphoblastic leukemia (H9) cell lines, as well as human embryonic kidney (HEK293) and mammary epithelial (HBL100 and HBL100/Dox) cells used as representatives of pseudonormal cells. All cell lines were obtained from American Type Culture Collection (ATCC). RPMI-1640 and DMEM media were obtained from Gibco. Fetal bovine serum (FBS) was purchased from HyClone. Cells were cultured in RPMI-1640 or DMEM media supplemented with 10% FBS and 50 μg/mL gentamicin in a humidified incubator with 5% CO2 atmosphere. The cell growth inhibitory effects of the compounds were evaluated using the conventional MTT assay (ICN Biomedicals, Eschwege, Germany). Cells were seeded in triplicate at a cell density of 5 × 10^3/well in 96-well plates in 100 µL complete medium and preincubated for 24 h. The tested compounds were initially dissolved in DMSO. Then, the compounds at various concentrations were added to the media. The well plates were incubated for 48 h followed by addition of MTT solution (Sigma, Darmstadt, Germany) (20 μL, 5 mg/mL). The cells were incubated at 37 °C for further 3 h; then the culture medium was removed, and formazan crystals were dissolved in DMSO (70 μL). The absorbance of the resulting solutions was measured on a multi-well plate reader (Multiskan FC, Thermo scientific) at 530 nm to determine the percentage of surviving cells. The reported values of IC50 are the averages of three independent experiments (Table 2 and Table 3). Cisplatin (in the initial form of an infusion concentrate in natural saline solution) from a commercial source was used as the reference.

Data set [2] has as its system K562/iS9 resistant chronic myelogenous leukemia cells. The experiment in a line: MTT cytotoxicity assay, K562/iS9. The class given is cell-based, human. To be noted: read-out: IC50 ± SD, K562/iS9. The protocol: as §1, §2
Data set [3] has as its system AMO1 multiple plasmacytoma cells. In words: MTT cytotoxicity assay, AMO1. The note with it: for IC50: AMO1, MTT, 48 h exposure, read-out: IC50 ± SD, AMO1. Format: cell-based, human. The protocol: as §1, §2
In data set [4] the test system is K562 chronic myelogenous leukemia cells. The experiment in a line: MTT cytotoxicity assay, K562. Format: cell-based, human. To be noted: 48 h exposure, read-out: IC50 ± SD, K562. As to the method:
as §1, §2

Data set [5] concerns U251 glioblastoma cells. In words: MTT cytotoxicity assay, U251. To be noted: read-out: IC50 ± SD, U251. The class given is cell-based, human. As to the method:
as §1, §2

For data set [6], the system named is PC3 prostate adenocarcinoma cells. The experiment in a line: MTT cytotoxicity assay, PC3. Format: cell-based, human. The note with it: 48 h exposure, read-out: IC50 ± SD, PC3. As to the method:
as §1, §2

The subject of data set [7] is HBL100/Dox doxorubicin-resistant mammary epithelial cells. In words: MTT cytotoxicity assay, HBL100/Dox. Format: cell-based, human. To be noted: for IC50: MTT, 48 h exposure, read-out: IC50 ± SD, HBL100/Dox. The protocol:
as §1, §2

Data set [8] deals with Scov3 ovarian adenocarcinoma cells. In words: MTT cytotoxicity assay, Scov3. Format: cell-based, human. To be noted: Scov3, MTT, 48 h exposure, read-out: IC50 ± SD, Scov3. As to the method:
as §1, §2

Data set [9] concerns HCT116 colorectal carcinoma cells. The experiment in a line: MTT cytotoxicity assay, HCT116. To be noted: read-out: IC50 ± SD, HCT116. The class given is cell-based, human. The protocol: as §1, §2
Data set [10] concerns HBL100 mammary epithelial cells. The experiment in a line: MTT cytotoxicity assay, HBL100. The note with it: read-out: IC50 ± SD, HBL100. Format: cell-based, human. As to the method:
as §1, §2

In data set [11] the test system is HEK293 embryonic kidney cells. The experiment in a line: MTT cytotoxicity assay, HEK293. To be noted: HEK293 noncancerous cells, 48 h exposure, read-out: IC50 ± SD, HEK293. The class given is cell-based, human. The protocol: as §1, §2
Data set [12] is described as follows: 31P NMR stability study in CDCl3–(CD3)2SO mixture. The class given is physicochemical. The note with it: commensurable decomposition degree reached only in a week. As to the method:
(§3) The observed dependences correlate well with our previous findings on the lability of the phosphoryl sites in palladocycles 2a,b, 3a,b and can be rationalized in terms of their coordination behavior. […] However, the presence of an additional competitive chloride anion makes complex 2b potentially more susceptible to decoordination of the phosphoryl arm. […] At least the N,N-bidentately bound core remained intact in the mentioned media over a period of 48 h.

In data set [13] the test system is H9 acute lymphoblastic leukemia cells. In words: MTT cytotoxicity assay, H9. Format: cell-based, human. The note with it: 48 h exposure, read-out: IC50 ± SD, H9. As to the method: as §1
as §2, with “Then, the compounds at various concentrations were added to the media. The well plates were incubated for 48 h followed by addition of MTT solution (Sigma, Darmstadt, Germany) (20 μL, 5 mg/mL). The cells were incubated at 37 °C for further 3 h; then the culture medium was removed, and formazan crystals were dissolved in DMSO (70 μL).” left out, “The reported values of IC50 are the averages of three independent experiments (Table 2 and Table 3). Cisplatin (in the initial form of an infusion concentrate in natural saline solution) from a commercial source was used as the reference.” left out

Data set [14] deals with K562 cells. The experiment in a line: MTT assay with complexes preliminarily kept in DMSO–RPMI 1640, K562. Format: cell-based, human. To be noted: K562, kept in DMSO–RPMI 1640 (1/10 by volume) for 48 h before experiment, 72 h incubation. The protocol: as §3
(§4) Figure S51. Effect of complexes 2b (a) and 3b (b) dissolved either in neat DMSO or DMSO–RPMI 1640 mixture on AMO1 and K562 cells (cell viability was defined by the conventional MTT assay according to the methodology described in the Experimental section with slight modifications: the complexes explored were preliminarily kept in neat DMSO or DMSO–RPMI 1640 mixture for 2 days before the experiments and the following incubation period […]

Data set [15] deals with AMO1 cells. The experiment in a line: MTT assay with complexes preliminarily kept in DMSO–RPMI 1640, AMO1. Format: cell-based, human. The note with it: AMO1, kept in DMSO–RPMI 1640 (1/10 by volume) for 48 h before experiment, 72 h incubation. As to the method:
as §3, §4

A short description of data set [16]: Solubility and stability in solvents (observation). The note with it: for stability in DMSO: strongly coordinating media (DMSO). Format: physicochemical. The text has this: To further explore the effect of lability of coordination sites on the biological activity of this type of cyclopalladated complexes, we decided to modify the second arm in the O,N,N-ligand framework, specifically the ancillary N-donor group, replacing the pyridine unit for a more rigid quinoline moiety. The reaction of [amino(phenyl)methyl]diphenylphosphine oxide hydrochloride with in situ generated quinoline-2-carboxylic acid chloride smoothly furnished functionalized amide 4, which, in turn, readily underwent direct cyclopalladation, affording Pd(II) pincer complex 5 (Scheme 4). The molecular structure of this palladocycle is presented in Figure 4, while its main geometric parameters are listed in Table S1 in the SI. Unfortunately, complex 5 appeared to be insoluble in common organic solvents and unstable in strongly coordinating media (e.g., DMSO); a possible reason for the stability issues is its highly constrained structure. Therefore, it was withdrawn from the cytotoxicity studies.
A solution of PdCl2(NCPh)2 (70 mg, 0.182 mmol) in CH2Cl2 (4 mL) was added dropwise to a solution of ligand 4 (84 mg, 0.182 mmol) and Et3N (26 μL, 0.186 mmol) in CH2Cl2 (6 mL). The reaction mixture was left under ambient conditions for 1 day and then filtered through a pad of cotton. The filtrate was evaporated to dryness. The resulting residue was washed with Et2O and purified by column chromatography on silica gel (eluent: CHCl3–EtOH (25:1)) to give 60 mg of the target pincer complex as a yellow crystalline solid. Yield: 55%. Mp: >175 °C (dec.). ^31P{^1H} NMR (161.98 MHz, CH2Cl2/D2O): δ 72.32 ppm (the ^1H and ^13C{^1H} NMR spectroscopic data for complex 5 were not obtained due to its low solubility in common organic solvents (e.g., chlorinated hydrocarbons and acetonitrile) and instability in strongly coordinating media (e.g., DMSO)). IR (KBr, ν/cm^–1): 521(w), 534(w), 561(s), 586(w), 699(m), 725(w), 766(w), 852(w), 927(vw), 998(w), 1024(m), 1042(m), 1121(m) (νP=O), 1154(w), 1341(w), 1378(br, m), 1437(m), 1461(w), 1493(w), 1516(w), 1560(w), 1595(w), 1633(s) (νC=O), 2923(vw), 3064(w). […]

Turning to `N.N.[Cl][Pt][Cl]` [Cisplatin, reference compound], the IC50 in [1] is 25 ± 4 µM; in [2] (48 h exposure), 16 ± 2 µM; in [3], 3.2 ± 0.6 µM; in data set [4], 15.5 ± 0.5 µM; in [5] (48 h exposure), 16.5 ± 1.5 µM; in data set [6], 16 ± 3 µM. In addition, the IC50 in data set [7] stood at 23.6 ± 3.6 µM; in data set [8] it was 21 ± 3 µM; in [9] (48 h exposure) it was 18 ± 2 µM; in data set [10] (48 h exposure), 14.6 ± 3.6 µM; in data set [11], 12.5 ± 1.5 µM.

In the case of `O=C(c1ccccn1)[N]([Pd][Cl])C(c1ccccc1)P(=O)(c1ccccc1)c1ccccc1` (stereo not drawn) [complex 3b, [κ^3-O,N,N-(L)Pd(II)Cl]], the IC50 amounted to 13 ± 1.5 µM in data set [1]; 7.2 ± 1 µM in [2] (48 h exposure); 3.2 ± 0.2 µM in data set [13]; 2.7 ± 0.5 µM in [3]; 6.4 ± 0.4 µM in data set [4]; 43 ± 5 µM in data set [5] (48 h exposure). Also, the IC50 stood at 16 ± 2 µM in [6]; 28 ± 2.6 µM in [7]; 40 ± 0.6 µM in data set [8]; 4 ± 2 µM in data set [9] (48 h exposure); 17.8 ± 0.8 µM in [10] (48 h exposure); 12.5 ± 3.5 µM in [11]. The “stability in CDCl3–(CD3)2SO mixture” value in data set [12] is listed as “quite stable”. In addition, the “cytotoxic activity after keeping in DMSO–RPMI 1640 mixture vs neat DMSO” value in data set [14] and in data set [15] was “comparable” in each case.

`O=C(c1ccc2ccccc2n1)[N]([Pd][Cl])C(c1ccccc1)P(=O)(c1ccccc1)c1ccccc1` (stereo not drawn) [complex 5, [κ^3-O,N,N-(L)Pd(II)Cl]]: in data set [16] (common organic solvents), the “solubility in common organic solvents” value was “insoluble”. In addition, in [16], the “stability in DMSO” value is “unstable”.

Take `O=C(c1cccc2cccnc12)[N](CP(=O)(c1ccccc1)c1ccccc1)[Pd][Cl]` [complex 7, [κ^3-O,N,N-(L)Pd(II)Cl]]: the IC50 was found to be 58 ± 12 µM in data set [1], 52 ± 10 µM in [6], 38 ± 6 µM in data set [9] (48 h exposure) and 23 ± 3 µM in data set [11]. In data set [16], the “stability in DMSO” value is listed as “stable”.

With `O=C(NCP(=O)(c1ccccc1)c1ccccc1)c1ccccn1` [ligand 1a, N-[(Diphenylphosphoryl)methyl]picolinamide], the “percentage of live cells” value was 46% ^3 in data set [1] (MCF7, compound concentration 100.0 μM, 48 h); 41% ^3 in data set [3] (AMO1, compound concentration 80.0 μM, 48 h); 35% ^3 in data set [7] (compound concentration 100.0 μM, 48 h). Moreover, the IC50 in data set [2] (Homo sapiens, K562i/S9, 48 h exposure) was above 80 µM; in data set [13] (Homo sapiens), above 80 µM; in data set [4] (Homo sapiens), above 80 µM; in [5] (Homo sapiens, U-251, 48 h exposure) it was above 100 µM; in data set [6] (Homo sapiens), above 100 µM; in [8] (Homo sapiens) it was above 100 µM. The IC50 in [9] (Homo sapiens, HCT-116, 48 h exposure) was above 100 µM; in [10] (Homo sapiens, HBL-100, 48 h exposure), above 100 µM; in [11] (Homo sapiens) it was above 100 µM.
